*1 amine or outer side, *2 acyl side, *3 side chain or, on linkers, in order; H or OH if unused. Where a SMILES comes first, the peptide text is derived from it. Bridges are numbered along the chain shown (N, C = ends). [ ]: non-standard residue; d: D form. The star is where a group is joined. hPhe(3,5-F2-4-CF3) = N[C@@H](CCc1cc(F)c(C(F)(F)F)c(F)c1)C(=O)O; X48 = CCCN([C@@H](Cc1ccc(OCC=[*:3])cc1)C(=O)[*:2])[*:1]; NPrPhe(4-CF3) = CCCN[C@@H](Cc1ccc(C(F)(F)F)cc1)C(=O)O; X17 = CN([C@@H](CCCCC=[*:3])C(=O)[*:2])[*:1]; X36 = CN([C@@H](CCCC=[*:3])C(=O)[*:2])[*:1]; dαMeAlg = C[C@](CC=[*:3])(N[*:1])C(=O)[*:2]; X47 = CN([C@@H](CCC=[*:3])C(=O)[*:2])[*:1]; NMeGly(cPent) = CN[C@H](C(=O)O)C1CCCC1; NMeSer(allyl) = C=CCOC[C@H](NC)C(=O)O; Hyp = O=C(O)[C@@H]1C[C@@H](O)CN1; NMeD = CN[C@@H](CC(=O)O)C(=O)O; Morpholide = C1CN(*)CCO1; Ac5c = NC1(C(=O)O)CCCC1; Sar = CNCC(=O)O
How the values were obtained:
[1] = target: GDP-bound NRAS wild-type protein (Homo sapiens, UniProt P01111); experiment: Binding to NRAS by surface plasmon resonance (SPR), KD and KD ratio to KRAS; conditions: ratio of KD for GDP-bound NRAS wild-type protein to KD for KRAS
Procedure, shortened: (§1)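 Captured GDP-RAS (~100–300 RU) was exposed to increasing compound concentrations, 75 s per step, in running buffer with 10 µM GDP, 10 mM MgCl2 and 4% DMSO at pH 7.4.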

[2] = tested on: human lung cancer strain NCI-H441; assay type: cell-based
Procedure, shortened: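 Step one: dispense the test compound in serial DMSO dilutions. Step three: add the reagent and measure […].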

[3] = target: HRAS wild-type protein (Homo sapiens, UniProt P01112); experiment: Binding to HRAS by surface plasmon resonance (SPR), KD and KD ratio to KRAS; conditions: ratio of KD for HRAS wild-type protein to KD for KRAS
Procedure, shortened: as §1

Sequence of HRAS wild-type protein (P01112 whole entry): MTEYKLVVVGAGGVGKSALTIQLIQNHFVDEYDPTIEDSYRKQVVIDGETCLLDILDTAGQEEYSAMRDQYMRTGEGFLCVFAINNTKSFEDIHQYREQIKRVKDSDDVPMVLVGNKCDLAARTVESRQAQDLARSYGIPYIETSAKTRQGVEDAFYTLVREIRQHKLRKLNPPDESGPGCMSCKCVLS
Sequence of GDP-bound NRAS wild-type protein (P01111 whole entry): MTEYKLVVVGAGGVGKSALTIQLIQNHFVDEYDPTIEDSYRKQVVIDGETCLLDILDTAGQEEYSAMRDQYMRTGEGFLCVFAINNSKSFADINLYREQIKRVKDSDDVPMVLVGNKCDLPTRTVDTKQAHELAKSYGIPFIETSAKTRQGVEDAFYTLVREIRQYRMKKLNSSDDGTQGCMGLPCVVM

IC50 [2]	Compound	NRAS /KRAS [1]	HRAS /KRAS [3]
58.1 nM	CCO[C@@H]1C[C@H]2C(=O)NC3(CCC3)C(=O)N(C)[C@@H](C3CCCC3)C(=O)N(C)[C@H](C(=O)N(C)C)CC(=O)N(C)[C@@H](CC)C(=O)N[C@@H]([C@@H](C)CC)C(=O)N(C)CC(=O)N(C)[C@H]3CCCCCN(C3=O)[C@@H](Cc3ccc(F)c(Cl)c3)C(=O)N(C)CC(=O)N[C@@H](CCc3cc(F)c(C(F)(F)F)c(F)c3)C(=O)N2C1 [PP0909]	B (a compound having 3 or more and less than 10 is denoted as B)	B (a compound having 3 or more and less than 10 is denoted as B)
10.2 nM	CCO[C@@H]1C[C@H]2C(=O)NC3(CCC3)C(=O)N(C)[C@@H](C3CCCC3)C(=O)N(C)[C@H](C(=O)N(C)C)CC(=O)N(C)[C@@H](CC)C(=O)N[C@@H]([C@@H](C)CC)C(=O)N(C)CC(=O)N(C)[C@H]3CCCCCN(C3=O)[C@@H](Cc3ccc(F)cc3C)C(=O)N(C)CC(=O)N[C@@H](CCc3cc(F)c(C(F)(F)F)c(F)c3)C(=O)N2C1 [PP0911]	B (a compound having 3 or more and less than 10 is denoted as B)	B (a compound having 3 or more and less than 10 is denoted as B)
40.2 nM	CCO[C@@H]1C[C@H]2C(=O)NC3(CCC3)C(=O)N(C)[C@@H](C3CCCC3)C(=O)N(C)[C@H](C(=O)N(C)C)CC(=O)N(C)[C@@H](CC)C(=O)N[C@@H]([C@@H](C)CC)C(=O)N(C)CC(=O)N(C)[C@H]3CCCCCN(C3=O)[C@@H](Cc3ccc(F)cc3OC)C(=O)N(C)CC(=O)N[C@@H](CCc3cc(F)c(C(F)(F)F)c(F)c3)C(=O)N2C1 [PP0914]	B (a compound having 3 or more and less than 10 is denoted as B)	B (a compound having 3 or more and less than 10 is denoted as B)
37.6 nM	CCO[C@@H]1C[C@H]2C(=O)NC3(CCC3)C(=O)N(C)[C@@H](C3CCCC3)C(=O)N(C)[C@H](C(=O)N(C)C)CC(=O)N(C)[C@@H](CC)C(=O)N[C@@H]([C@@H](C)CC)C(=O)N(C)CC(=O)N(C)[C@H]3CCCCCN(C3=O)[C@@H](Cc3ccc(F)c(OC)c3)C(=O)N(C)CC(=O)N[C@@H](CCc3cc(F)c(C(F)(F)F)c(F)c3)C(=O)N2C1 [PP0915]	B (a compound having 3 or more and less than 10 is denoted as B)	B (a compound having 3 or more and less than 10 is denoted as B)
27.7 nM	CCO[C@@H]1C[C@H]2C(=O)NC3(CCC3)C(=O)N(C)[C@@H](C3CCCC3)C(=O)N(C)[C@H](C(=O)N3CCOCC3)CC(=O)N(C)[C@@H](CC(C)C)C(=O)N[C@@H]([C@@H](C)CC)C(=O)N(C)CC(=O)N(C)[C@H]3CCCCCN(C3=O)[C@@H](Cc3ccc(F)cc3Cl)C(=O)N(C)CC(=O)N[C@@H](CCc3cc(F)c(C(F)(F)F)c(F)c3)C(=O)N2C1 [PP0918]	B (a compound having 3 or more and less than 10 is denoted as B)	B (a compound having 3 or more and less than 10 is denoted as B)
110 nM	CCO[C@@H]1C[C@H]2C(=O)NC3(CCC3)C(=O)N(C)[C@@H](C3CCCC3)C(=O)N(C)[C@H](C(=O)N3CCOCC3)CC(=O)N(C)[C@@H](CC(C)C)C(=O)N[C@@H]([C@@H](C)CC)C(=O)N(C)CC(=O)N(C)[C@H]3CCCCCN(C3=O)[C@@H](Cc3ccc(F)c(Cl)c3)C(=O)N(C)CC(=O)N[C@@H](CCc3cc(F)c(C(F)(F)F)c(F)c3)C(=O)N2C1 [PP0919]	B (a compound having 3 or more and less than 10 is denoted as B)	B (a compound having 3 or more and less than 10 is denoted as B)

Continued, compound first:

Compound	IC50 [2]	NRAS /KRAS [1]	HRAS /KRAS [3]
CCCN1C(=O)CN(C)C(=O)CN(C)C(=O)[C@H]([C@@H](C)CC)NC(=O)[C@@H]2CCCCCOc3ccc(cc3)C[C@H]1C(=O)N(C)CC(=O)N[C@@H](CCc1cc(F)c(C(F)(F)F)c(F)c1)C(=O)N1C[C@H](OCC)C[C@H]1C(=O)NC1(CCCC1)C(=O)N(C)[C@@H](C1CCCC1)C(=O)N(C)[C@H](C(=O)N(C)C)CC(=O)N2C [PP0895]	2.2 nM	C (A compound having a KD ratio of 0.1 or more and less than 3 is denoted as C)	C (A compound having a KD ratio of 0.1 or more and less than 3 is denoted as C)
CCCN1C(=O)CN(C)C(=O)CN(C)C(=O)[C@H]([C@@H](C)CC)NC(=O)[C@@H]2CCCCCCOc3ccc(cc3)C[C@H]1C(=O)N(C)CC(=O)N[C@@H](CCc1cc(F)c(C(F)(F)F)c(F)c1)C(=O)N1C[C@H](OCC)C[C@H]1C(=O)NC1(CCCC1)C(=O)N(C)[C@@H](C1CCCC1)C(=O)N(C)[C@H](C(=O)N(C)C)CC(=O)N2C [PP0896]	3.1 nM	C (A compound having a KD ratio of 0.1 or more and less than 3 is denoted as C)	C (A compound having a KD ratio of 0.1 or more and less than 3 is denoted as C)
CCCN1C(=O)CN(C)C(=O)CN(C)C(=O)[C@H]([C@@H](C)CC)NC(=O)[C@@H]2CCCCCCC[C@@](C)(NC(=O)[C@@H]3C[C@@H](OCC)CN3C(=O)[C@H](CCc3cc(F)c(C(F)(F)F)c(F)c3)NC(=O)CN(C)C(=O)[C@@H]1Cc1ccc(C(F)(F)F)cc1)C(=O)N(C)[C@@H](C1CCCC1)C(=O)N(C)[C@H](C(=O)N1CCOCC1)CC(=O)N2C [PP0898]	120 nM	B (a compound having 3 or more and less than 10 is denoted as B)	B (a compound having 3 or more and less than 10 is denoted as B)
CCCN1C(=O)CN(C)C(=O)CN(C)C(=O)[C@H]([C@@H](C)CC)NC(=O)[C@@H]2COCCCC[C@@](C)(NC(=O)[C@@H]3C[C@@H](OCC)CN3C(=O)[C@H](CCc3cc(F)c(C(F)(F)F)c(F)c3)NC(=O)CN(C)C(=O)[C@@H]1Cc1ccc(C(F)(F)F)cc1)C(=O)N(C)[C@@H](C1CCCC1)C(=O)N(C)[C@H](C(=O)N1CCOCC1)CC(=O)N2C [PP0899]	923 nM	A (a compound having 10 or more and less than 20 is denoted as A)	B (a compound having 3 or more and less than 10 is denoted as B)
CCCN1C(=O)CN(C)C(=O)CN(C)C(=O)[C@H]([C@@H](C)CC)NC(=O)[C@@H]2CCC=CCOc3ccc(cc3)C[C@H]1C(=O)N(C)CC(=O)N[C@@H](CCc1cc(F)c(C(F)(F)F)c(F)c1)C(=O)N1C[C@H](OCC)C[C@H]1C(=O)NC1(CCCC1)C(=O)N(C)[C@@H](C1CCCC1)C(=O)N(C)[C@H](C(=O)N(C)C)CC(=O)N2C [PP0900] ([X47]I[Sar][Sar][X48][Sar][hPhe(3,5-F2-4-CF3)][Hyp](Et)[Ac5c][NMeGly(cPent)][NMeD]-NMe2; staple 1-5; lactam N-11)	4.9 nM	C (A compound having a KD ratio of 0.1 or more and less than 3 is denoted as C)	C (A compound having a KD ratio of 0.1 or more and less than 3 is denoted as C)
CCCN1C(=O)CN(C)C(=O)CN(C)C(=O)[C@H]([C@@H](C)CC)NC(=O)[C@@H]2CCCC=CC[C@@](C)(NC(=O)[C@@H]3C[C@@H](OCC)CN3C(=O)[C@H](CCc3cc(F)c(C(F)(F)F)c(F)c3)NC(=O)CN(C)C(=O)[C@@H]1Cc1ccc(C(F)(F)F)cc1)C(=O)N(C)[C@@H](C1CCCC1)C(=O)N(C)[C@H](C(=O)N1CCOCC1)CC(=O)N2C [PP0901] ([X36]I[Sar][Sar][NPrPhe(4-CF3)][Sar][hPhe(3,5-F2-4-CF3)][Hyp](Et)[dαMeAlg][NMeGly(cPent)][NMeD]-Morpholide; staple 1-9; lactam N-11)	332 nM	B (a compound having 3 or more and less than 10 is denoted as B)	B (a compound having 3 or more and less than 10 is denoted as B)
CCCN1C(=O)CN(C)C(=O)CN(C)C(=O)[C@H]([C@@H](C)CC)NC(=O)[C@@H]2CCCCC=CC[C@@](C)(NC(=O)[C@@H]3C[C@@H](OCC)CN3C(=O)[C@H](CCc3cc(F)c(C(F)(F)F)c(F)c3)NC(=O)CN(C)C(=O)[C@@H]1Cc1ccc(C(F)(F)F)cc1)C(=O)N(C)[C@@H](C1CCCC1)C(=O)N(C)[C@H](C(=O)N1CCOCC1)CC(=O)N2C [PP0902] ([X17]I[Sar][Sar][NPrPhe(4-CF3)][Sar][hPhe(3,5-F2-4-CF3)][Hyp](Et)[dαMeAlg][NMeGly(cPent)][NMeD]-Morpholide; staple 1-9; lactam N-11)	72.6 nM	A (a compound having 10 or more and less than 20 is denoted as A)	B (a compound having 3 or more and less than 10 is denoted as B)
CCCN1C(=O)CN(C)C(=O)CN(C)C(=O)[C@H]([C@@H](C)CC)NC(=O)[C@@H]2COCC=CC[C@@](C)(NC(=O)[C@@H]3C[C@@H](OCC)CN3C(=O)[C@H](CCc3cc(F)c(C(F)(F)F)c(F)c3)NC(=O)CN(C)C(=O)[C@@H]1Cc1ccc(C(F)(F)F)cc1)C(=O)N(C)[C@@H](C1CCCC1)C(=O)N(C)[C@H](C(=O)N1CCOCC1)CC(=O)N2C [PP0903] ([NMeSer(allyl)]I[Sar][Sar][NPrPhe(4-CF3)][Sar][hPhe(3,5-F2-4-CF3)][Hyp](Et)[dαMeAlg][NMeGly(cPent)][NMeD]-Morpholide; staple 1-9; lactam N-11)	596 nM	B (a compound having 3 or more and less than 10 is denoted as B)	C (A compound having a KD ratio of 0.1 or more and less than 3 is denoted as C)

Source: patent EP4603105A1, “PHARMACEUTICAL COMPOSITION CONTAINING CYCLIC COMPOUND HAVING SELECTIVE KRAS INHIBITORY EFFECT AGAINST HRAS AND NRAS” (CHUGAI SEIYAKU KABUSHIKI KAISHA, priority 2022, dated 2024)
